Experimental data taken from patent US20260327191A1, “GSK3a INHIBITORS AND METHODS OF USE THEREOF” (Blueprint Medicines Corporation, priority 2023, published 2026).

Columns and labels:
human GSK3α = target: T1, human GSK3α (Homo sapiens, UniProt P49840); test: In vitro enzymatic activity assay, GSK3α; type: biochemical; conditions: 1.0 mM ATP, 1.0 μM peptide substrate, 120 min, 25° C, read-out: Enzyme GSK3α (IC50)
T1 construct: Full length human GSK3α or GSK3B expressed as N-terminal GST fusion proteins; GST (N); purchased Carna Biosciences (Japan); host or cells: baculovirus host
T1 sequence (P49840 whole entry, the tested form may be a part): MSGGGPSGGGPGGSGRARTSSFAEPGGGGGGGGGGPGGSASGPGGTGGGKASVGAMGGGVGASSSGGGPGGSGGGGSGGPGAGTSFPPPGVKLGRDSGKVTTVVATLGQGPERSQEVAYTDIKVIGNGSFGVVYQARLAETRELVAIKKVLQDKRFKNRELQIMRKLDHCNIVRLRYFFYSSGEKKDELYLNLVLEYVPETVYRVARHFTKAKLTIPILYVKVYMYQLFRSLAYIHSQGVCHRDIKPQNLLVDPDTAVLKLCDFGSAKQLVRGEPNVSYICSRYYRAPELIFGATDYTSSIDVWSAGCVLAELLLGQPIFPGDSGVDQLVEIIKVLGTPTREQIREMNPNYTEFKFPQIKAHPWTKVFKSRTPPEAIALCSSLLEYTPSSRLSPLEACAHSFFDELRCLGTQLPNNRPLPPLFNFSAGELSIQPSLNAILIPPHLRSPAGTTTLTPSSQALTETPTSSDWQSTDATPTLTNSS

GSK3B [1] = target: T2, GSK3B (Homo sapiens, UniProt P49841); test: NanoBRET cellular target engagement assay, Nanoluc-GSK3B in HEK293 cells; type: cell-based; parameters: expressed in transfected cells; conditions: NanoBRET GSK3β IC50, HEK293 cells, tracer K-8, 2 hours, 37° C
T2 sequence (P49841 whole entry): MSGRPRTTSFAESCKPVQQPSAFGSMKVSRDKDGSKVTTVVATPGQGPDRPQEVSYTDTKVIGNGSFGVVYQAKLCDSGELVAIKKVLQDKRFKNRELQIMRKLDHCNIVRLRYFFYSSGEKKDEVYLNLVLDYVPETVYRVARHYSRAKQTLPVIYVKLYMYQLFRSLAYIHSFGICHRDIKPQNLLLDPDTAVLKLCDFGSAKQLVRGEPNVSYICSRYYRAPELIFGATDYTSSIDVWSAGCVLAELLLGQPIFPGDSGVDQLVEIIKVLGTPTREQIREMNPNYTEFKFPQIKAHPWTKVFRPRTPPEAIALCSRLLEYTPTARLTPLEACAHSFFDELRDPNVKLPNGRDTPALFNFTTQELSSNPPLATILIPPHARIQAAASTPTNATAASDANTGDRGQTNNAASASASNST

GSK3A = target: T3, GSK3A (Homo sapiens, UniProt P49840); test: NanoBRET cellular target engagement assay, Nanoluc-GSK3A in HEK293 cells; type: cell-based; conditions: NanoBRET GSK3α IC50, HEK293 cells, tracer K-8, 2 hours, 37° C
T3 construct: expressed in transfected cells
T3 sequence (P49840 whole entry): as the sequence (P49840 whole entry, the tested form may be a part) above

GSK3B [2] = target: T2, GSK3B; test: In vitro enzymatic activity assay, GSK3β; type: biochemical; parameters: Full length human GSK3α or GSK3B expressed as N-terminal GST fusion proteins; GST (N); purchased Carna Biosciences (Japan); host or cells: baculovirus host; conditions: 1.0 mM ATP, 1.0 μM peptide substrate, 120 min, 25° C, read-out: Enzyme GSK3β (IC50)

| IC50 (human GSK3α) [nM] | IC50 (GSK3B [1]) [nM] | IC50 (GSK3A) [nM] | IC50 (GSK3B [2]) [nM] | Structure (SMILES) |
| --- | --- | --- | --- | --- |
| 3.9 | 167 | 2.1 | 175 | Cc1cc([C@@H](C)F)cc(C)c1-n1cnc(N)c(C(=O)Nc2cncc([C@H]3CCCCN3)c2)c1=O (single isomer, unassigned) [Example 184, 4-amino-1-(4-((R)-1-fluoroethyl)-2,6-dimethylphenyl)-6-oxo-N-(5-((R)-piperidin-2-yl)pyridin-3-yl)-1,6-dihydropyrimidine-5-carboxamide or 4-amino-1-(4-((S)-1-fluoroethyl)-2,6-dimethylphenyl)-6-oxo-N-(5-((R)-piperidin-2-yl)pyridin-3-yl)-1,6-dihydropyrimidine-5-carboxamide] |
| 3.5 | 128 | 1.6 | 148 | Cc1cc([C@@H](C)F)cc(C)c1-n1cnc(N)c(C(=O)Nc2cncc([C@H]3CCCCN3)c2)c1=O (single isomer, unassigned) [Example 185, 4-amino-1-(4-((R)-1-fluoroethyl)-2,6-dimethylphenyl)-6-oxo-N-(5-((R)-piperidin-2-yl)pyridin-3-yl)-1,6-dihydropyrimidine-5-carboxamide or 4-amino-1-(4-((S)-1-fluoroethyl)-2,6-dimethylphenyl)-6-oxo-N-(5-((R)-piperidin-2-yl)pyridin-3-yl)-1,6-dihydropyrimidine-5-carboxamide] |
| 8.4 | 421 | 5.6 | 357 | COc1cc(Cl)c(-n2cnc(N)c(C(=O)Nc3cncc([C@]4(N)CCCOC4)c3)c2=O)c(Cl)c1 (single isomer, unassigned) [Example 187, (R)-4-amino-N-(5-(3-aminotetrahydro-2H-pyran-3-yl)pyridin-3-yl)-1-(2,6-dichloro-4-methoxyphenyl)-6-oxo-1,6-dihydropyrimidine-5-carboxamide or (S)-4-amino-N-(5-(3-aminotetrahydro-2H-pyran-3-yl)pyridin-3-yl)-1-(2,6-dichloro-4-methoxyphenyl)-6-oxo-1,6-dihydropyrimidine-5-carboxamide] |
| 10.4 | 345 | 3.9 | 460 | COc1cc(Cl)c(-n2cnc(N)c(C(=O)Nc3cncc([C@]4(N)CCCOC4)c3)c2=O)c(Cl)c1 (single isomer, unassigned) [Example 188, R)-4-amino-N-(5-(3-aminotetrahydro-2H-pyran-3-yl)pyridin-3-yl)-1-(2,6-dichloro-4-methoxyphenyl)-6-oxo-1,6-dihydropyrimidine-5-carboxamide or (S)-4-amino-N-(5-(3-aminotetrahydro-2H-pyran-3-yl)pyridin-3-yl)-1-(2,6-dichloro-4-methoxyphenyl)-6-oxo-1,6-dihydropyrimidine-5-carboxamide] |
| 133 | 4580 | 69.4 | 2160 | Nc1ncn(-c2c(Cl)cccc2Cl)c(=O)c1C(=O)Nc1cccc([C@@H]2CNC(=O)CN2)c1 (single isomer, unassigned) [Example 189, (R)-4-amino-1-(2,6-dichlorophenyl)-6-oxo-N-(3-(5-oxopiperazin-2-yl)phenyl)-1,6-dihydropyrimidine-5-carboxamide or (S)-4-amino-1-(2,6-dichlorophenyl)-6-oxo-N-(3-(5-oxopiperazin-2-yl)phenyl)-1,6-dihydropyrimidine-5-carboxamide] |
| 37.6 | 3300 | 26.7 | 971 | Nc1ncn(-c2c(Cl)cccc2Cl)c(=O)c1C(=O)Nc1cccc([C@@H]2CNC(=O)CN2)c1 (single isomer, unassigned) [Example 190, (R)-4-amino-1-(2,6-dichlorophenyl)-6-oxo-N-(3-(5-oxopiperazin-2-yl)phenyl)-1,6-dihydropyrimidine-5-carboxamide or (S)-4-amino-1-(2,6-dichlorophenyl)-6-oxo-N-(3-(5-oxopiperazin-2-yl)phenyl)-1,6-dihydropyrimidine-5-carboxamide] |
| 5.7 | 304 | 4.7 | 230 | Nc1ncn(-c2c(Cl)cccc2Cl)c(=O)c1C(=O)Nc1cccc([C@H]2CC[C@H](CO)N2)c1 (single isomer, unassigned) [Example 191, 4-amino-1-(2,6-dichlorophenyl)-N-(3-((2R,5R)-5-(hydroxymethyl)pyrrolidin-2-yl)phenyl)-6-oxo-1,6-dihydropyrimidine-5-carboxamide or 4-amino-1-(2,6-dichlorophenyl)-N-(3-((2S,5S)-5-(hydroxymethyl)pyrrolidin-2-yl)phenyl)-6-oxo-1,6-dihydropyrimidine-5-carboxamide] |
| 11 | 462 | 5.4 | 632 | CN[C@@H](C)c1cncc(NC(=O)c2c(N)ncn(-c3c(Cl)cc(OC4CC4)cc3Cl)c2=O)c1 (single isomer, unassigned) [Example 195, (S)-4-amino-1-(2,6-dichloro-4-cyclopropoxyphenyl)-N-(5-(1-(methylamino)ethyl)pyridin-3-yl)-6-oxo-1,6-dihydropyrimidine-5-carboxamide or (R)-4-amino-1-(2,6-dichloro-4-cyclopropoxyphenyl)-N-(5-(1-(methylamino)ethyl)pyridin-3-yl)-6-oxo-1,6-dihydropyrimidine-5-carboxamide] |
| 15 | 403 | 7.2 | 850 | COCC[C@@H](N)c1cncc(NC(=O)c2c(N)ncn(-c3c(Cl)cccc3Cl)c2=O)c1 (single isomer, unassigned) [Example 197, (R)-4-amino-N-(5-(1-amino-3-methoxypropyl)pyridin-3-yl)-1-(2,6-dichlorophenyl)-6-oxo-1,6-dihydropyrimidine-5-carboxamide or (S)-4-amino-N-(5-(1-amino-3-methoxypropyl)pyridin-3-yl)-1-(2,6-dichlorophenyl)-6-oxo-1,6-dihydropyrimidine-5-carboxamide] |
| 13.5 | 782 | 8.8 | 706 | COc1cc(Cl)c(-n2cnc(N)c(C(=O)Nc3cncc([C@@H](N)C(F)F)c3)c2=O)c(Cl)c1 (single isomer, unassigned) [Example 204, (R)-4-amino-N-(5-(1-amino-2,2-difluoroethyl)pyridin-3-yl)-1-(2,6-dichloro-4-methoxyphenyl)-6-oxo-1,6-dihydropyrimidine-5-carboxamide or (S)-4-amino-N-(5-(1-amino-2,2-difluoroethyl)pyridin-3-yl)-1-(2,6-dichloro-4-methoxyphenyl)-6-oxo-1,6-dihydropyrimidine-5-carboxamide] |
| 9.4 | 139 | 3.1 | 260 | COc1cc(C)c(-n2cnc(N)c(C(=O)N[C@@H]3CCC[C@H](CN)C3)c2=O)c(Cl)c1 (single isomer, unassigned) [Example 206, 4-amino-N-((1R,3S)-3-(aminomethyl)cyclohexyl)-1-((S)-2-chloro-4-methoxy-6-methylphenyl)-6-oxo-1,6-dihydropyrimidine-5-carboxamide or 4-amino-N-((1S,3R)-3-(aminomethyl)cyclohexyl)-1-((S)-2-chloro-4-methoxy-6-methylphenyl)-6-oxo-1,6-dihydropyrimidine-5-carboxamide] |
